These results are taken from patent US20250115640A1, “NEUROPROTECTIVE POLYPEPTIDE COMPOUND AND APPLICATION THEREOF” (Innerse (Zhuhai) Pharmaceutical Co., Ltd., priority 2021, published 2025).

Values joined by “and” are separate entries in the source; they are usually repeats but may differ in a detail not shown here. Equal values may be shown once. “Also recorded” adds a separate entry of the source. Square brackets hold non-standard residues; d marks the D form. Ends that are not written are not given here. Peptide text beside a SMILES is read from it. βAla = NCCC(=O)O

The subject of data set [1] is rat model of cerebral ischemia via middle cerebral artery occlusion (MCAO). Kind of data set: Rat MCAO cerebral ischemia model, TTC staining, cerebral infarct volume (Example 5). Format: in vivo, SD rats. As to conditions: 3 mg/kg tail vein 1-2 h after ligation, TTC after 22-24 h. The procedure:
In order to determine use of the synthetic peptides provided herein in a neurological disease, SD rats were used to prepare a rat model of cerebral ischemia via middle cerebral artery occlusion (MCAO). These rats were injected intravenously 1-2 hours after ischemia, and subjected for a behavioral observation and scoring after 22-24 hours. After the behavioral observation, the rats were euthanized and their brains were removed, cut to sections and stained with TTC for quantitative analysis, and the cerebral infarct volume % was calculated. The experimental SD rats were weighed and anesthetized with chloral hydrate. After anesthesia, the limbs of the rats were fixed, and the rats were placed in a supine position, connected to the small-animal monitor, and monitored for important physiological parameters such as body temperature, blood pressure and heart rate, etc. The rats were shaved at neck and disinfected with 75% alcohol cotton ball. […] The experimental rats were monitored with the small-animal monitor to evaluate if their physiological parameters were normal, and the rats were placed on a small-animal electric blanket to keep their body temperature until they waked up and placed in animal cages. […] The quantitative analysis of photos after TTC staining was performed using Image J software. […]

Data set [2] deals with acute ischemic stroke due to large vessel occlusion. The conditions noted are these: cited from earlier work.
The test system of data set [3] is rat model of cerebral ischemia via middle cerebral artery occlusion (MCAO). Kind of data set: Rat MCAO cerebral ischemia model, behavioral observation and scoring 0-5 (Example 5). Format: in vivo, SD rats. As to conditions: 3 mg/kg tail vein, scoring 22-24 h after ligation, scale 0-5; for Behavioral score, mean value: group mean, 6 rats. The procedure: In order to determine use of the synthetic peptides provided herein in a neurological disease, SD rats were used to prepare a rat model of cerebral ischemia via middle cerebral artery occlusion (MCAO). These rats were injected intravenously 1-2 hours after ischemia, and subjected for a behavioral observation and scoring after 22-24 hours. After the behavioral observation, the rats were euthanized and their brains were removed, cut to sections and stained with TTC for quantitative analysis, and the cerebral infarct volume % was calculated. The experimental SD rats were weighed and anesthetized with chloral hydrate. After anesthesia, the limbs of the rats were fixed, and the rats were placed in a supine position, connected to the small-animal monitor, and monitored for important physiological parameters such as body temperature, blood pressure and heart rate, etc. The rats were shaved at neck and disinfected with 75% alcohol cotton ball. A middle incision of about 2 cm length was then made on the neck of the rats, and the submandibular gland of the rats was bluntly separated while avoiding damage to the gland. Then, the left common carotid artery (CCA) of the rats was bluntly separated, and the internal carotid artery (ICA) and external carotid artery (ECA) were carefully separated upward along the CCA. Any damage to vagus nerves was avoided during the separation. The CCA and ICA were clamped respectively with two artery clamps, and the distal end of the ECA was cut off. A silicone suture emboli was inserted into the ECA “port” to the ICA artery clamp. Then the artery clamp was quickly loosened and the tip of the suture emboli was pushed forward through the artery clamp quickly before clamping the ICA again. […] The experimental rats were monitored with the small-animal monitor to evaluate if their physiological parameters were normal, and the rats were placed on a small-animal electric blanket to keep their body temperature until they waked up and placed in animal cages. […]

Data set [4] is described as follows: General status observation and autopsy findings of MCAO model animals (Example 6). The conditions noted are these: 24 hours after administration; single animals. Format: in vivo, Sprague-Dawley (SD) rats. The procedure: After the adaptation period, animals weighing 240-290 g were selected for dividing into groups for modeling. 24 hours after administration, the animal numbered 2M006 in the S3 group was found dead. […] The data of the above animals was not included in the final statistical analysis. The data of the remaining animals in each group was included in the final statistical analysis. The number of animals included in the final statistical analysis was 8 animals for the model control group, 7 animals for S3 group, 9 animals for the t-PA group and 7 animals for S3+t-PA group.
• Animals observed: all the surviving animals planned to be observed; • Observation time: once a day, and the frequency can be increased if the animal starts to behave abnormal; • What were observed: including but not limited to general manifestations, behavioral status, eye, mouth, nose and mouth area, ear, hair and skin, feces, urine, genital organ and other toxic symptoms. A detailed description was required if there was any abnormality.

Data set [5] in a line: Body weight of MCAO model animals (Example 6). In kind it is in vivo, Sprague-Dawley (SD) rats. As to conditions: individual animal. The procedure:
• Animals measured: all the surviving experimental animals planned to be measured; • Measurement time: the body weight was measured at least twice during the adaptation period, once 24 hours before surgery for grouping, and once 24 hours after surgery.
Cerebral ischemia-reperfusion is an acute injury model, wherein the weight of experimental animals will drop dramatically after MCAO modeling. Thus, the weight of experimental animals is one of the most basic sensitive parameters to comprehensively reflect the health status of animals. In this experiment, the body weight of all the animals was monitored on the day before the surgery and on the first day after the surgery, and the changes of animal's body weight were observed and recorded.

As to YGRKKRRQRRRKLSSIESDV [Example S1], in data set [1] (group mean, 6 rats), the “Cerebral infarct volume (TTC quantification), mean value” is recorded as 0.157. In addition, the “Cerebral infarct volume (TTC quantification), individual rats No. 1-6” value in data set [1] (individual rat, listed as S1(NA1)) was 0.187 and 0.218 and 0.153 and 0.145 and 0.107 and 0.134. For the same molecule, the Serious adverse events result in data set [2] (human, in vivo) is given as “occurred equally between groups”. Further, the “Proportion of patients with an mRS score of 0-2 within 90 days” value in data set [2] (single dose of 2.6 mg/kg, maximum 270 mg, 549 patients, placebo 59.2%) is recorded as 61.4%. In addition, the “Behavioral score, mean value” in data set [3] came out at 2.0; in data set [3] (listed as NA1), 2.0±0.6. The “Behavioral score, individual rats No. 1-6” value in data set [3] (individual rat) is 2 (4×) and 1 and 3.
As for `CC[C@H](C)[C@H](NC(=O)[C@H](CO)NC(=O)[C@H](CO)NC(=O)[C@H](CC(C)C)NC(=O)[C@H](CCCCN)NC(=O)[C@H](Cc1c[nH]cn1)NC(=O)CCN)C(=O)N[C@@H](CCC(=O)O)C(=O)N[C@@H](CO)C(=O)N[C@@H](CC(=O)O)C(=O)N[C@H](C(=O)O)C(C)C` [Example S3, beta-Ala-His-Lys-Leu-Ser-Ser-Ile-Glu-Ser-Asp-Val] (H-[βAla]HKLSSIESDV-OH), the “Death and autopsy findings in animals excluded from statistical analysis” value in data set [4] was “found dead; also recorded: subarachnoid hemorrhage”. Besides, the “Body weight D 2, individual animals” value in data set [5] (after surgery and administration) was 232.57 g and 249.67 g and 201.22 g and 228.45 g and 202.45 g and 195.33 g and 217.36 g. Further, in data set [5] (before surgery (baseline)), the “Body weight D 0, individual animals” value is 281.72 g and 266.48 g and 253.24 g and 286.91 g and 258.64 g and 247.34 g and 273.73 g.
